The test system of test [1] is Calf thymus DNA. As to the kind of experiment: Binding affinity to calf thymus DNA by UV-visible absorption spectroscopy. It counts as nucleic-acid assay. To be noted: for Kb: Bos taurus.
Test [2] deals with Escherichia coli. As to the kind of experiment: Photo-cleavage activity in Escherichia coli supercoiled pUC19 DNA assessed as formation of open circular form of DNA at 80 uM measured 2 hrs after UV-light irradiation by gel electrophoresis analysis.
The subject of test [3] is Escherichia coli. As to the kind of experiment: Photo-cleavage activity in Escherichia coli supercoiled pUC19 DNA assessed as formation of open circular form of DNA at 60 uM measured 2 hrs after UV-light irradiation by gel electrophoresis analysis.
Test [4] deals with Escherichia coli. As to the kind of experiment: Photo-cleavage activity in Escherichia coli supercoiled pUC19 DNA assessed as formation of nicked form of DNA at 20 to 40 uM measured 2 hrs after UV-light irradiation by gel electrophoresis analysis.
Test [5] concerns Escherichia coli. As to the kind of experiment: Photo-cleavage activity in Escherichia coli supercoiled pUC19 DNA assessed as formation of nicked form of DNA at 80 uM measured 2 hrs after UV-light irradiation by gel electrophoresis analysis.
Test [6] concerns Escherichia coli. As to the kind of experiment: Photo-cleavage activity in Escherichia coli supercoiled pUC19 DNA assessed as formation of linear form of DNA at 80 uM measured 2 hrs after UV-light irradiation by gel electrophoresis analysis.
Test [7] deals with Calf thymus DNA. As to the kind of experiment: Binding affinity to calf thymus DNA assessed as fluorescence quenching at DNA/compound ratio 4 by fluorescence spectrophotometer analysis. The format is nucleic-acid assay. The note with it: Bos taurus.
Test [8] relates to Calf thymus DNA. As to the kind of experiment: Binding affinity to calf thymus DNA assessed as relative viscosity after 5 mins by semimicrodilution capillary viscometer analysis. The format is nucleic-acid assay. The note with it: Bos taurus. (Broth dilution looks for growth in wells or tubes with falling amounts of substance.)
Test [9] has as its system Escherichia coli. As to the kind of experiment: Photo-cleavage activity in Escherichia coli supercoiled pUC19 DNA assessed as formation of open circular form of DNA at 40 uM measured 2 hrs after UV-light irradiation by gel electrophoresis analysis.
Test [10] deals with Escherichia coli. As to the kind of experiment: Photo-cleavage activity in Escherichia coli supercoiled pUC19 DNA assessed as formation of open circular form of DNA at 140 uM measured 2 hrs after UV-light irradiation by gel electrophoresis analysis.

Calls of active or inactive are those of the source. The rule behind the calls is not given here.

`CNc1ccc(C(=O)/C=C/c2cc3ccccc3nc2Cl)cc1` returned a Kb in the test on Calf thymus DNA [1] of 3.5 ×10⁴ /M. Moreover, the Activity in the test on Escherichia coli [2] is 40%; in the test on Escherichia coli [3] it was 57%; in the test with Escherichia coli [4], 8%; with Escherichia coli [5], 40%; in the test on Escherichia coli [6], 24%.
Regarding `O=C(/C=C/c1cc2ccccc2nc1Cl)c1ccc(O)cc1`, the Kb in the test on Calf thymus DNA [1] was found to be 1.9 ×10⁴ /M. For the same compound, the outcome in the test with Calf thymus DNA [7] and with Calf thymus DNA [8] was Active. In addition, the Activity in the test on Escherichia coli [9] turned out to be 24%; in the test with Escherichia coli [2], 70%; in the test with Escherichia coli [3] it was 53%; with Escherichia coli [4] it was 8%; in the test with Escherichia coli [5], 70%; with Escherichia coli [6] it was 24%.
For orientation: Ki means the equilibrium dissociation constant of an inhibitor or competing ligand from its target. Read a low Ki as higher affinity. `O=C(/C=C/c1cc2ccccc2nc1Cl)c1ccccc1` had a Ki with Calf thymus DNA [1] of 0.572 µM. In the test with Calf thymus DNA [1], this compound registered a Kb of 5.2 ×10⁴ /M. In addition, the outcome with Calf thymus DNA [7] and in the test on Calf thymus DNA [8] was Active. The Activity amounted to 50% in the test with Escherichia coli [3], 8% in the test with Escherichia coli [4], 70% in the test with Escherichia coli [5] and 24% in the test with Escherichia coli [6].
Compound `Cc1ccc(C(=O)/C=C/c2cc3ccccc3nc2Cl)cc1` registered a Ki with Calf thymus DNA [1] of 0.54 µM. The same compound yielded a Kb with Calf thymus DNA [1] of 4.9 ×10⁴ /M. Besides, the outcome in the test on Calf thymus DNA [7] and in the test on Calf thymus DNA [8] was Active. Besides, the Activity in the test on Escherichia coli [3] came to 51%; in the test with Escherichia coli [4] it was 8%; with Escherichia coli [5] it was 70%; in the test with Escherichia coli [6], 24%.
On to `O=C(/C=C/c1cc2ccccc2nc1Cl)c1ccc([N+](=O)[O-])cc1`, for which, in the test on Calf thymus DNA [1], the inhibition constant (Ki) was found to be 0.531 µM. The compound also yielded a Kb in the test on Calf thymus DNA [1] of 4.91 ×10⁴ /M. In addition, the result with Calf thymus DNA [7] and in the test on Calf thymus DNA [8] was Active. The Activity in the test on Escherichia coli [3] was 56%; in the test on Escherichia coli [4] it was 8%; in the test on Escherichia coli [5], 70%; in the test on Escherichia coli [6], 24%.
For the compound `O=C(/C=C/c1cc2ccccc2nc1Cl)c1ccc(Cl)cc1`, the Ki with Calf thymus DNA [1] amounted to 0.562 µM. Besides, in the test with Calf thymus DNA [1], the Kb was found to be 5.13 ×10⁴ /M. Besides, the result in the test on Calf thymus DNA [7] and in the test with Calf thymus DNA [8] was Active. Also, the Activity in the test with Escherichia coli [3] is 54%; in the test with Escherichia coli [4] it was 8%; in the test on Escherichia coli [5] it was 70%; in the test on Escherichia coli [6], 24%.
Take `O=C(/C=C/c1cc2ccccc2nc1Cl)c1ccc(Br)cc1`: in the test on Calf thymus DNA [1], the Ki turned out to be 0.468 µM. Besides, the Kb with Calf thymus DNA [1] came to 4.2 ×10⁴ /M. For the same compound, the result in the test with Calf thymus DNA [7] and in the test with Calf thymus DNA [8] was Active. The Activity came to 55% in the test on Escherichia coli [3], 8% in the test on Escherichia coli [4], 70% in the test on Escherichia coli [5] and 24% in the test on Escherichia coli [6].
`COc1ccc(C(=O)/C=C/c2cc3ccccc3nc2Cl)cc1` came in with a Kb in the test on Calf thymus DNA [1] of 2.8 ×10⁴ /M. Moreover, the result in the test with Calf thymus DNA [7] and in the test with Calf thymus DNA [8] was Active. In addition, the Activity in the test on Escherichia coli [3] came out at 52%; in the test with Escherichia coli [10], 58%; in the test on Escherichia coli [4], 8%; in the test on Escherichia coli [5] it was 70%; in the test with Escherichia coli [6] it was 24%.

The record behind these values is ChEMBL document CHEMBL3621078, “Synthesis, DNA binding, docking and photocleavage studies of quinolinyl chalcones” (Medchemcomm, 2014).
